The target of one test is T1, mouse GnRH receptor (Mus musculus, UniProt Q01776).
T1 construct: expressed in transfected cells; host or cells: 293 cells
T1 sequence (Q01776 1-327): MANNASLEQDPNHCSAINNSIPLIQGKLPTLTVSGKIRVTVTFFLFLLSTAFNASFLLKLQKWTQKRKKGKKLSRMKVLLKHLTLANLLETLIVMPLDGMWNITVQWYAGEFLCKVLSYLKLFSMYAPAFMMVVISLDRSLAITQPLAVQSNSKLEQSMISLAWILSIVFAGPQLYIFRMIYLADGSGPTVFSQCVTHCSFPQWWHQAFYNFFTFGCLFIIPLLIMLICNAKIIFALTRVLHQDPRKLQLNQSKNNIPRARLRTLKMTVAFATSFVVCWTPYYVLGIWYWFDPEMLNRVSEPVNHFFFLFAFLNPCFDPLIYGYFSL
Put plainly: Radioligand binding, 125I-GnRH-A, 293 cells expressing mouse GnRH receptors. To be noted: 10 uM; read-out: % Inhib. @ 10 uM mGnRH. As to the method: All compounds were diluted in 1% DMSO (final assay concentration) in binding assay buffer. […] Reactions were terminated by rapid filtration onto 96-well Packard GF/C filters soaked in 0.1% polyethyleneimine. Filters were washed three times with PBS buffer, dried and counted on a Packard Topcount by liquid scintillation counting.
Assay conditions were identical for assessing compound activities at other species. […] IC50 values for control peptides and test compounds were calculated utilizing GraphPad Prism™ software.
The reaction mixture was vortexed and incubated for 1 min at room temperature. After one min, the mixture was vortexed and allowed to incubate for an additional minute. 2 ml of 0.5 M acetic acid/1% BSA was added to the reaction tube and the mixture was added to a C18 Sep-Pak cartridge. The cartridge was washed with subsequent washes of 5 ml H2O and 5 ml 0.5M acetic acid and then eluted with 5×1 ml of 60% CH3CN/40% 0.5M acetic acid. The eluate was diluted with 3× volume of HPLC buffer A (0.1% TFA in H2O) and loaded onto a C18 column. […] The radioactive fractions (750 ed/fraction) are collected into clean polypropylene tubes containing 100 μl of 10% BSA. Fractions were assessed for biological activity by radioligand binding.

The target of a further test is T2, human GnRH receptor (Homo sapiens, UniProt P30968).
T2 construct: expressed in transfected cells; host or cells: HEK 293 (hGnRH-R/293, from Dr. Stuart Sealfon)
T2 sequence (P30968 1-328): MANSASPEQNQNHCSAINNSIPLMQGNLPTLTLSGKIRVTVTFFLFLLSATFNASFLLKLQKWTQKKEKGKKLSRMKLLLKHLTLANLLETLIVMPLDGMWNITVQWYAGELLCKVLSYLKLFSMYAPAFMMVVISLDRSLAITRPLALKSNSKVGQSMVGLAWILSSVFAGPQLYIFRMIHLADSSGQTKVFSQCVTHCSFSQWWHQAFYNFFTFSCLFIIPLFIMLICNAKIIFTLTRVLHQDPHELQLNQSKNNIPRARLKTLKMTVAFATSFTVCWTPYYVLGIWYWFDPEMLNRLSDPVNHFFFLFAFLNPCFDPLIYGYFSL
Put plainly: Radioligand binding, 125I-GnRH-A displacement, membranes of HEK 293 cells with human GnRH receptor. The essentials: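 After filtration and PBS washes, bound radioactivity was counted by scintillation and IC50 derived. Identical conditions applied for non-human receptors.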

Setting [1] is: 1 uM, read-out: % Inhib. @ 1 uM hGnRH.
The mark [2] stands for this setting: 1 h, repeat of % Inhib. at 1 uM, read-out: Repeats @ 1 uM hGnRH.

Where two headings read alike, the source gives them in different places.

As to `Cc1cc2c(cc1Cc1ccc(C(=O)N3CCCC3CNc3ccccc3)o1)C(C)(C)CCC2(C)C` (centres unmarked), the inhibition at 10 µM on mouse GnRH receptor came out at 53%.
The same measure, in the same setting: to `Cc1cc2c(cc1Cc1ccc(C(=O)NC(C)c3cccc4ccccc34)o1)C(C)(C)CCC2(C)C` (centres unmarked) belongs 28%; to `C#CCN(C)C(=O)c1ccc(Cc2cc3c(cc2C)C(C)(C)CCC3(C)C)o1`, 83%; to `Cc1cc2c(cc1Cc1ccc(C(=O)N3CCC(c4cccc(C(F)(F)F)c4)C(O)C3)o1)C(C)(C)CCC2(C)C` (centres unmarked), 35%.
Regarding `Cc1cc2c(cc1Cc1ccc(C(=O)N3CCN(c4ccccc4O)CC3)o1)C(C)(C)CCC2(C)C`, the inhibition at 10 µM at mouse GnRH receptor is 36%.
On the same count and under the same terms, to `Cc1cc2c(cc1Cc1ccc(C(=O)N(CCC#N)Cc3ccccc3)o1)C(C)(C)CCC2(C)C` belongs 74%; to `Cc1cc2c(cc1Cc1ccc(C(=O)N(CCC(c3ccccc3)c3ccccc3)C(C)c3ccccc3)o1)C(C)(C)CCC2(C)C` (centres unmarked), 30%.
Consider `Cc1cc2c(cc1Cc1ccc(C(=O)NCCc3ccc(OCc4ccccc4)c(OCc4ccccc4)c3)o1)C(C)(C)CCC2(C)C`, for which the inhibition at 10 µM on mouse GnRH receptor stood at 20%.
The same measure, in the same setting: to `Cc1cc2c(cc1Cc1ccc(C(=O)N(C)CCCC34c5ccccc5[C@@H]5CCC53c3ccccc34)o1)C(C)(C)CCC2(C)C` (some centres unmarked) belongs 14%.
The same measure, in the same setting: the same measure for `Cc1cc2c(cc1Cc1ccc(C(=O)N(Cc3c[nH]c4ccccc34)C3CCCCC3)o1)C(C)(C)CCC2(C)C`: 27%; for `COc1cc2c(cc1OC)C(c1ccccc1)N(C(=O)c1ccc(Cc3cc4c(cc3C)C(C)(C)CCC4(C)C)o1)CC2` (centres unmarked): 29%; for `Cc1cc2c(cc1Cc1ccc(C(=O)N3CC4(C)CC3CC(C)(C)C4)o1)C(C)(C)CCC2(C)C` (centres unmarked): 100%.
Same read-out and setting: the same measure for `Cc1cc2c(cc1Cc1ccc(C(=O)N3CC=C(n4c(=O)[nH]c5ccccc54)CC3)o1)C(C)(C)CCC2(C)C`: 85%.
In the case of `Cc1cc2c(cc1Cc1ccc(C(=O)NC3C4CC5CC6CC(C5)C643)o1)C(C)(C)CCC2(C)C` (centres unmarked), on mouse GnRH receptor, the inhibition at 10 µM is 37%.
Still for that read-out and setting: the same measure for `Cc1cc2c(cc1Cc1ccc(C(=O)N3CCC[C@@H]3C(=O)NC(c3ccccc3)c3ccccc3)o1)C(C)(C)CCC2(C)C`: 58%; for `Cc1cc2c(cc1Cc1ccc(C(=O)NCCC(C)C)o1)C(C)(C)CCC2(C)C`: 88%.
Consider `Cc1cc2c(cc1Cc1ccc(C(=O)NC3CCCc4ccccc43)o1)C(C)(C)CCC2(C)C` (centres unmarked) [drawing 1150], for which the “% Inhib. @ 1 uM hGnRH” value on human GnRH receptor (1 uM) came to 16%. Further, the “Repeats @ 1 uM hGnRH” value on human GnRH receptor (repeat of % Inhib. at 1 uM) was determined as 32.
With `COCCNC(=O)c1ccc(Cc2cc3c(cc2C)C(C)(C)CCC3(C)C)o1` [drawing 1155], the inhibition at 1 µM was 55% on human GnRH receptor (setting [1]) and 61% on human GnRH receptor (setting [2]).
In the same order, the values of `Cc1cc2c(cc1Cc1ccc(C(=O)NCCc3ccc(Br)cc3)o1)C(C)(C)CCC2(C)C` [drawing 1171] are 16% and 24%.
In the same order, the values of `COc1ccc(CCNC(=O)c2ccc(Cc3cc4c(cc3C)C(C)(C)CCC4(C)C)o2)cc1` [drawing 1173] are 42% and 53%.
In the same order, the values of `Cc1cccc(CNC(=O)c2ccc(Cc3cc4c(cc3C)C(C)(C)CCC4(C)C)o2)c1` [drawing 1174] are 93% and 95%.
`Cc1ccc(CNC(=O)c2ccc(Cc3cc4c(cc3C)C(C)(C)CCC4(C)C)o2)cc1` [drawing 1175]: the inhibition at 1 µM at human GnRH receptor (setting [1]) was determined as 87%; on human GnRH receptor (setting [2]), 90%.
Taken in the same sequence, the figures for `Cc1cc2c(cc1Cc1ccc(C(=O)NCCO)o1)C(C)(C)CCC2(C)C` [drawing 1178] were 1% and 1%.
Take `Cc1cc2c(cc1Cc1ccc(C(=O)NCCC#N)o1)C(C)(C)CCC2(C)C` [drawing 1179]: the inhibition at 1 µM on human GnRH receptor (setting [1]) was determined as 42%; on human GnRH receptor (setting [2]), 44%.
For `Cc1cc2c(cc1Cc1ccc(C(=O)NCCc3cccc(F)c3)o1)C(C)(C)CCC2(C)C` [drawing 1181], the inhibition at 1 µM was 59% on human GnRH receptor (setting [1]) and 62% on human GnRH receptor (setting [2]).
With `Cc1cc2c(cc1Cc1ccc(C(=O)NCCOc3ccccc3)o1)C(C)(C)CCC2(C)C` [drawing 1182], the inhibition at 1 µM on human GnRH receptor (setting [1]) was determined as 93%; on human GnRH receptor (setting [2]), 95%.
In the same order, the values of `COc1cccc(CNC(=O)c2ccc(Cc3cc4c(cc3C)C(C)(C)CCC4(C)C)o2)c1` [drawing 1188] are 76% and 79%.
In the same order, the values of `Cc1cc2c(cc1Cc1ccc(C(=O)NCc3cccc(-c4ccccc4)c3)o1)C(C)(C)CCC2(C)C` [drawing 1190] are -10% and -6%.
Taken in the same sequence, the figures for `Cc1ccc(CNC(=O)c2ccc(Cc3cc4c(cc3C)C(C)(C)CCC4(C)C)o2)cc1C` [drawing 1191] were 77% and 79%.
`Cc1cc2c(cc1Cc1ccc(C(=O)NCc3cccc(C)c3C)o1)C(C)(C)CCC2(C)C` [drawing 1192]: the figures for the inhibition at 1 µM at human GnRH receptor (setting [1]) and at human GnRH receptor (setting [2]) were 81% and 85%, respectively.
In the same order, the values of `Cc1ccc(CCNC(=O)c2ccc(Cc3cc4c(cc3C)C(C)(C)CCC4(C)C)o2)cc1` [drawing 1193] are 48% and 52%.
Taken in the same sequence, the figures for `Cc1cc2c(cc1Cc1ccc(C(=O)NCc3cccc(F)c3)o1)C(C)(C)CCC2(C)C` [drawing 1195] were 81% and 82%.
In the same order, the values of `Cc1cc2c(cc1Cc1ccc(C(=O)NCC(O)c3ccccc3)o1)C(C)(C)CCC2(C)C` (centres unmarked) [drawing 1196] are 68% and 69%.
For `Cc1cc2c(cc1Cc1ccc(C(=O)NCc3ccc(F)cc3F)o1)C(C)(C)CCC2(C)C` [drawing 1197], the inhibition at 1 µM is 74% on human GnRH receptor (setting [1]) and 81% on human GnRH receptor (setting [2]).
In the same order, the values of `Cc1cc2c(cc1Cc1ccc(C(=O)NCCc3ccc(F)cc3)o1)C(C)(C)CCC2(C)C` [drawing 1198] are 45% and 45%.
Taken in the same sequence, the figures for `Cc1cc2c(cc1Cc1ccc(C(=O)NC(CO)CC3CCCCC3)o1)C(C)(C)CCC2(C)C` (centres unmarked) [drawing 1215] were 10% and 2%.
In the same order, the values of `Cc1cc2c(cc1Cc1ccc(C(=O)NCc3ccc(N(C)C)cc3)o1)C(C)(C)CCC2(C)C` [drawing 1220] are 78% and 85%.
On to `COc1cc(CNC(=O)c2ccc(Cc3cc4c(cc3C)C(C)(C)CCC4(C)C)o2)ccc1O` [drawing 1222], for which the inhibition at 1 µM on human GnRH receptor (setting [1]) and at human GnRH receptor (setting [2]) was 54% throughout.
In the case of `Cc1cc2c(cc1Cc1ccc(C(=O)NCc3ccccc3Br)o1)C(C)(C)CCC2(C)C` [drawing 1223], the inhibition at 1 µM at human GnRH receptor (setting [1]) worked out at 57%; at human GnRH receptor (setting [2]) it was 60%.
Taken in the same sequence, the figures for `COc1ccc(CNC(=O)c2ccc(Cc3cc4c(cc3C)C(C)(C)CCC4(C)C)o2)c(OC)c1` [drawing 1224] were 94% and 96%.
As to `Cc1cc2c(cc1Cc1ccc(C(=O)NCc3cccc([N+](=O)[O-])c3)o1)C(C)(C)CCC2(C)C` [drawing 1231], the inhibition at 1 µM was determined as 75% on human GnRH receptor (setting [1]) and 77% on human GnRH receptor (setting [2]).
For `Cc1cc2c(cc1Cc1ccc(C(=O)NC(C#N)c3ccccc3)o1)C(C)(C)CCC2(C)C` (centres unmarked) [drawing 1233], the inhibition at 1 µM amounted to 43% at human GnRH receptor (setting [1]) and 48% at human GnRH receptor (setting [2]).
Taken in the same sequence, the figures for `Cc1cc2c(cc1Cc1ccc(C(=O)NCc3ccc(Br)cc3)o1)C(C)(C)CCC2(C)C` [drawing 1234] were 49% and 52%.
Taken in the same sequence, the figures for `Cc1cc2c(cc1Cc1ccc(C(=O)NCc3cccc(Br)c3)o1)C(C)(C)CCC2(C)C` [drawing 1235] were 62% and 68%.
In the same order, the values of `Cc1cc2c(cc1Cc1ccc(C(=O)NC(C)c3ccc([N+](=O)[O-])cc3)o1)C(C)(C)CCC2(C)C` (centres unmarked) [drawing 1238] are 41% and 44%.

These data come from patent US7101878B1 (Agouron Pharmaceuticals, Inc., priority 1998, dated 2006).
